Measurements: paper PMC11031590, “Narazaciclib, a novel multi-kinase inhibitor with potent activity against CSF1R, FLT3 and CDK6, shows strong anti-AML activity in defined preclinical models” (Scientific Reports, 2024)

Columns and labels:
[1] = test system: Ba/F3-CSF1R cell line; assay: Ba/F3-CSF1R proliferation assay (CTG); assay type: cell-based, mouse
Experimental: The recombinant Ba/F3 cell lines overexpressing human CSF1R, or human RBM6-CSF1R, or human ETV6-CSF1R were generated using a retrovirus vector (Kyinno Co., Ltd. Beijing). The recombinant Ba/F3 lines overexpressing human Kras G12C orEGFR-L718Q mutants, and different mutant variants of FLT3 were also similarly created as well. A standard proliferation assay via CTG readout was performed according to the vendor’s instructions (KYinno Biotechnology Co., Ltd. Beijing).

[2] = test system: AML-193; assay: AML cell line in vitro proliferation assay; assay type: cell-based
Experimental: (§1) Narazaciclib was serially diluted with culture medium to 9 final assay concentrations from 0.01 to 100 μM. The assay was performed with both a negative control (vehicle) and a positive control (Cisplatin) in triplicate. The AML cell lines at log-growth phase were cultured in 96-well plates (black transparent flat bottom 96-well plate, Corning, Cat# 3603, FBS, ExCell Bio., Cat# FND500) in the presence of narazaciclib or Cisplatin at various concentrations for 72 h or 120 h (only for AML-193 cell line), followed by CTG readout according to the manufacturer’s instruction (CellTiter-Glo Luminescent Cell Viability Assay, Promega, Cat# G7573). Viability%=Lumdrug-Lummedium control/Lumcell control-Lummedium control×100%. Lumcell control-Lummedium controlas100%,LumMediumcontrolas0%. Proliferationfold increase=D5-LumNone treated-LumMedium control/D2LumNone treated-LumMedium control
(§2) Dose–response curves were fitted by a 4-parameter log-logistic model: Inhibition%=Bottom+Top-Bottom/1+10^logEC50-x∗HillSlope where Top and Bottom are the two asymptotes of the sigmoidal curve, EC50 is the relative IC50, concentration x is in log-10 scale and HillSlope is the slope at the EC50 point on the fitted curve. The fitted area under the curve (AUC) was calculated by: Inhibition%=Bottom+Top-Bottom/1+10^logEC50-x∗HillSlope where a represents the log10-transformed minimal concentration and b represents the log10-transformed maximal concentration. An extremely strong positive correlation between the absolute IC50 and AUC is shown in Supplemental Fig. S5.

[3] = test system: CMK-115; assay: AML cell line in vitro proliferation assay; assay type: cell-based
Experimental: as §1, §2

[4] = test system: HEL; assay: AML cell line in vitro proliferation assay; assay type: cell-based
Experimental: as §1, §2

[5] = test system: KASUMI-1; assay: AML cell line in vitro proliferation assay; assay type: cell-based
Experimental: as §1, §2

[6] = test system: KG-1A; assay: AML cell line in vitro proliferation assay; assay type: cell-based
Experimental: as §1, §2

[7] = test system: KG-1; assay: AML cell line in vitro proliferation assay; assay type: cell-based
Experimental: as §1, §2

[8] = test system: M07E; assay: AML cell line in vitro proliferation assay; assay type: cell-based
Experimental: as §1, §2

[9] = test system: MONOMAC-1; assay: AML cell line in vitro proliferation assay; assay type: cell-based
Experimental: as §1, §2

[10] = test system: MONOMAC-6; assay: AML cell line in vitro proliferation assay; assay type: cell-based
Experimental: as §1, §2

[11] = test system: NOMO-1; assay: AML cell line in vitro proliferation assay; assay type: cell-based
Experimental: as §1, §2

[12] = test system: OCI-AML-2; assay: AML cell line in vitro proliferation assay; assay type: cell-based
Experimental: as §1, §2

[13] = test system: OCI-M1; assay: AML cell line in vitro proliferation assay; assay type: cell-based
Experimental: as §1, §2

[14] = test system: OCI-M2; assay: AML cell line in vitro proliferation assay; assay type: cell-based
Experimental: as §1, §2

[15] = test system: PLB-985; assay: AML cell line in vitro proliferation assay; assay type: cell-based
Experimental: as §1, §2

[16] = test system: SKNO-1; assay: AML cell line in vitro proliferation assay; assay type: cell-based
Experimental: as §1, §2

[17] = test system: TF-1; assay: AML cell line in vitro proliferation assay; assay type: cell-based
Experimental: as §1, §2

[18] = test system: THP-1; assay: AML cell line in vitro proliferation assay; assay type: cell-based
Experimental: as §1, §2

[19] = test system: UT7; assay: AML cell line in vitro proliferation assay; assay type: cell-based
Experimental: as §1, §2

[20] = area under the dose–response curve

With `CN1CCN(c2ccc(Nc3ncc4cc(C#N)c(=O)n(C5CCCC5)c4n3)cc2)CC1` [Narazaciclib, narazaciclib] the “times more potent than GW2580” value ([1]; Ba/F3-CSF1R in the presence of CSF1) was 16 times, the IC50 ([1]; Mus musculus, + 100 ng/ml CSF-1) was about 0.00354 µM and the “Classification by AUC” value ([2]; AML-193) was “Intermediate (2.4 < AUC < 2.8, intermediate)”. It also gave an IC50 ([2]; AML-193, 120 h, CTG) of 6.29 µM, an AUC ([2]; AML-193, area under the dose–response curve) of 2.514 and an IC50 ([3]; CMK-11-5, CMK-115, 72 h, CTG) of 5.07 µM. The “Classification by AUC” value ([3]; CMK-115) was “Insensitive (AUC ≥ 2.8, insensitive)”, the AUC ([3]; CMK-115, area under the dose–response curve) was 2.801 and the “Classification by AUC” value [4] was “Insensitive (AUC ≥ 2.8, insensitive)”. It also gave an IC50 ([4]; Homo sapiens, 72 h, CTG) of 15.3 µM, an AUC [4, 20] of 3.335 and an IC50 ([5]; Homo sapiens, KASUMI-1, 72 h, CTG) of 0.169 µM. The “Classification by AUC” value ([5]; KASUMI-1) was “Sensitive (AUC ≤ 2.4, sensitive)”, the AUC ([5]; KASUMI-1, area under the dose–response curve) was 1.307 and the “Classification by AUC” value [6] was “Sensitive (AUC ≤ 2.4, sensitive)”. For the same molecule, the IC50 ([6]; Homo sapiens, 72 h, CTG) was 1.06 µM, the AUC [6, 20] was 2.289 and the IC50 ([7]; Homo sapiens, KG-1, 72 h, CTG) was 1.76 µM. For the same molecule, the “Classification by AUC” value ([7]; KG-1) was “Intermediate (2.4 < AUC < 2.8, intermediate)”, the AUC ([7]; KG-1, area under the dose–response curve) was 2.63 and the “Classification by AUC” value [8] was “Intermediate (2.4 < AUC < 2.8, intermediate)”. The IC50 ([8]; M-07e, 72 h, CTG) was 4.86 µM, the AUC [8, 20] was 2.557 and the “Classification by AUC” value ([9]; MONOMAC-1) was “Sensitive (AUC ≤ 2.4, sensitive)”. The AUC ([9]; MONOMAC-1, area under the dose–response curve) was 1.906, the IC50 ([9]; Mono-Mac-1, MONOMAC-1, 72 h, CTG) was 0.297 µM and the IC50 ([10]; Homo sapiens, MONO-MAC-6, MONOMAC-6, 72 h, CTG) was 1.52 µM. The “Classification by AUC” value ([10]; MONOMAC-6) was “Sensitive (AUC ≤ 2.4, sensitive)”, the AUC ([10]; MONOMAC-6, area under the dose–response curve) was 2.356 and the IC50 ([11]; Homo sapiens, NOMO-1, 72 h, CTG) was over 100 µM. The “Classification by AUC” value ([11]; NOMO-1) was “Insensitive (AUC ≥ 2.8, insensitive)”, the AUC ([11]; NOMO-1, area under the dose–response curve) was 3.207 and the IC50 ([12]; Homo sapiens, OCI-AML2, OCI-AML-2, 72 h, CTG) was 1.16 µM. For the same molecule, the “Classification by AUC” value ([12]; OCI-AML-2) was “Sensitive (AUC ≤ 2.4, sensitive)”, the AUC ([12]; OCI-AML-2, area under the dose–response curve) was 2.116 and the “Classification by AUC” value ([13]; OCI-M1) was “Insensitive (AUC ≥ 2.8, insensitive)”. The IC50 ([13]; OCI-M1, 72 h, CTG) was 19.5 µM, the AUC ([13]; OCI-M1, area under the dose–response curve) was 3.404 and the “Classification by AUC” value ([14]; OCI-M2) was “Insensitive (AUC ≥ 2.8, insensitive)”. The IC50 ([14]; OCI-M2, 72 h, CTG) was over 100 µM, the AUC ([14]; OCI-M2, area under the dose–response curve) was 3.46 and the “Classification by AUC” value ([15]; PLB-985) was “Insensitive (AUC ≥ 2.8, insensitive)”. The IC50 ([15]; PLB-985, 72 h, CTG) was 14.1 µM, the AUC ([15]; PLB-985, area under the dose–response curve) was 2.988 and the “Classification by AUC” value ([16]; SKNO-1) was “Sensitive (AUC ≤ 2.4, sensitive)”. For the same molecule, the IC50 ([16]; SKNO-1, 72 h, CTG) was 0.234 µM, the AUC ([16]; SKNO-1, area under the dose–response curve) was 1.97 and the IC50 ([17]; Homo sapiens, TF-1, 72 h, CTG) was 50.8 µM. For the same molecule, the “Classification by AUC” value ([17]; TF-1) was “Insensitive (AUC ≥ 2.8, insensitive)”, the AUC ([17]; TF-1, area under the dose–response curve) was 3.502 and the IC50 ([18]; Homo sapiens, THP-1, 72 h, CTG) was over 100 µM. For the same molecule, the “Classification by AUC” value ([18]; THP-1) was “Insensitive (AUC ≥ 2.8, insensitive)”, the AUC ([18]; THP-1, area under the dose–response curve) was 3.445 and the IC50 ([19]; Homo sapiens, UT7, 72 h, CTG) was 62.4 µM. The “Classification by AUC” value ([19]; UT7) was “Insensitive (AUC ≥ 2.8, insensitive)” and the AUC ([19]; UT7, area under the dose–response curve) was 3.469.
